“Also recorded” adds a separate entry of the source. Non-standard residues stand in square brackets, D forms with d. *: point of attachment. CH2Cl = ClC*
Columns and labels:
[1] = system: retinal vascular permeability; details: angiotensin-II-treated rodents; Phipps et al. 2009; cited from earlier work
ischemic stroke = details: rat model of ischemic stroke; cited from earlier work
hemorrhagic stroke = details: model of hemorrhagic stroke; cited from earlier work
[2] = system: retinal vascular permeability; assay: Angiotensin-II infusion model, retinal vascular permeability by vitreous fluorescein fluorophotometry; assay type: in vivo, Sprague-Dawley rats; details: twice-daily oral gavage for five days
Text: Continuous infusion of the vasoconstrictor peptide angiotensin-II in Sprague-Dawley rats over 3-7 days using subcutaneously implanted Alzet minipumps results in elevated blood pressure, and is accompanied by increased retinal vascular permeability, which can be measured using the technique of vitreous fluorescein fluorophotometry, as described in the prior art (Clermont, A. C., et al (2006) Invest Ophthalmol V is Sci.; 47: 2701-8). […] Inhibition of the excess retinal vascular permeability in this animal model following administration of compounds of the present invention via oral, subcutaneous, topical or intravitreal routes thus provides evidence of inhibition of plasma kallikrein in vivo.

[3] = target: T1, Human plasma kallikrein (PK) (Homo sapiens, UniProt P03952); assay: Human plasma kallikrein (PK) enzymatic inhibition assay, substrate H-D-Pro-Phe-Arg-pNA; assay type: biochemical; details: corrected Ki from Ki,app; 2 nM PK, 0.05 M HEPES pH 7.5, Km 0.33 mM
T1 construct: purchased Enzyme Research Laboratories (Gary, Ind.)
Protocol: Human plasma kallikrein (PK) was obtained from Enzyme Research Laboratories (Gary, Ind.). The enzymatic activity of PK was assayed using the synthetic peptide substrate H-D-Pro-Phe-Arg-pNA (Bachem, Peninsula City, Calif.) with the cleavage of the substrate by the enzyme resulting in an increase in A405, measured using a Molecular Devices Vmax Kinetic Microplate Reader. The uninhibited (control) activity of PK was determined by adding 190 μl of PK solution (2 nM in 0.05 M HEPES, pH 7.5, 0.01% Triton X-100) to 10 μl of H-D-Pro-Phe-Arg-pNA (2 mM in DMSO) in individual microtiter plate wells, mixed immediately by shaking, and the rate of increase in absorbance at 405 nm (A405) determined over 120-180 sec. In parallel, compounds of general formula V were mixed in separate wells with the synthetic substrate to attain final concentrations of between 0.01-10 μM in the final 200 μl reaction mixture, and the reaction initiated by the addition of 190 μl of the PK solution. A diminished rate of cleavage in the presence of a compound of general formula V denotes inhibition of PK activity, and the apparent inhibition constant (Ki,app) of the interaction can be determined by using the following equation— Ki,app=[I]/(PKControl/PKI−1) where [I]=concentration of inhibitory compound, PKcontrol=rate of substrate cleavage by uninhibited PK, PKI=rate of substrate cleavage by PK in the presence of inhibitory compound.
The corrected Ki of the interaction can be obtained as follows from the calculated Ki,app— Ki=Ki,app/([S]/Km+1) Where [S]=concentration of synthetic substrate, and Km=Michaelis constant of synthetic substrate for PK, in this case determined experimentally to be 0.33 mM under these conditions.

arthritis = details: rat models of arthritis; cited from earlier work
hereditary angioedema = details: patients with hereditary angioedema; cited from earlier work
sepsis [4] = details: LPS or bacterial induced sepsis in animals; cited from earlier work
[5] = system: middle cerebral artery occlusion; details: mouse model of middle cerebral artery occlusion; cited from earlier work
sepsis [6] = details: sepsis patients; cited from earlier work

T1 sequence (P03952 391-638 limits assumed): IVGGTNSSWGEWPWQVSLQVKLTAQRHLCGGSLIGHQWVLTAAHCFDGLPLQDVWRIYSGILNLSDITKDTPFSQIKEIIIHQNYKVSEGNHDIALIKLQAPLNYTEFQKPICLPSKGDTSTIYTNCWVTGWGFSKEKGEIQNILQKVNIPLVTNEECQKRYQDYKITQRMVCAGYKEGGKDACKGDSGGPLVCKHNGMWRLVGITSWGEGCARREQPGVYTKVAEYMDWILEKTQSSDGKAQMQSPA
T1 sequence (P03952 20-390 partner limits assumed): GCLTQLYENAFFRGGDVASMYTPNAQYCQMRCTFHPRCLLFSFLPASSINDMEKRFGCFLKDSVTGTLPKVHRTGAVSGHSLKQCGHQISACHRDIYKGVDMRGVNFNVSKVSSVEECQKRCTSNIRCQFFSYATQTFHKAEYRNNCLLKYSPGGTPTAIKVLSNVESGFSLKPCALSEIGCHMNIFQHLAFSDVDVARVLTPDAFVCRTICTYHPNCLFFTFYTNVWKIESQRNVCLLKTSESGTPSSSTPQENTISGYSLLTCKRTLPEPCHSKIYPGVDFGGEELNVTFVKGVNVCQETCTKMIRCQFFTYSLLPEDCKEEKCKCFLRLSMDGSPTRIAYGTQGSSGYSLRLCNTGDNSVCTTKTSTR

N=C(N)c1ccc(CNC(=O)c2cnn(Cc3ccccc3)c2)cc1 [ASP-440]
effect on retinal vascular permeability [1]: reduce retinal vascular permeability; also recorded: effective in reducing retinal vascular permeability | effect on infarction volume and cerebrovascular edema (ischemic stroke): reduce infarction volume and cerebrovascular edema | effect on expansion of intracerebral hemorrhage (hemorrhagic stroke): reduce

COC(=O)/N=C(\N)c1ccc(CNC(=O)c2cc(C)n(-c3ccc(F)cc3)c2C)cc1 [Example 4, (Z)-methyl amino-(4-((1-(4-fluorophenyl)-2,5-dimethyl-pyrrole-3-carbonylamino)methyl)phenyl)methylenecarbamate]
reduction of retinal vascular permeability [2]: 55%

Cc1cc(C(=O)NCc2ccc(C(=N)N)cc2)c(C)n1-c1ccc(F)cc1 [Example 11, N-[(4-carbamimidoylphenyl)methyl]-1-(4-fluorophenyl)-2,5-dimethyl-pyrrole-3-carboxamide]
Ki [3]: 13 nM

Cc1cc(C(=O)NCc2ccc(C(=N)N)cc2)c(C)n1-c1ccc(Cl)cc1 [Example 12, N-[(4-carbamimidoylphenyl)methyl]-1-(4-chlorophenyl)-2,5-dimethyl-pyrrole-3-carboxamide]
Ki [3]: 7 nM

COc1ccc(-n2c(C)cc(C(=O)NCc3ccc(C(=N)N)cc3)c2C)cc1 [Example 13, N-[(4-carbamimidoylphenyl)methyl]-1-(4-methoxyphenyl)-2,5-dimethyl-pyrrole-3-carboxamide]
Ki [3]: 17 nM

Cc1cc(C(=O)NCc2ccc(C(=N)N)cc2)c(C)n1-c1ccc2c(c1)OCCO2 [N-[(4-carbamimidoylphenyl)methyl]-1-(2,3-dihydro-1,4-benzodioxin-6-yl)-2,5-dimethyl-pyrrole-3-carboxamide]
Ki [3]: 14 nM

Cc1cc(C(=O)NCc2ccc(C(=N)N)cc2)c(C)n1-c1ccccn1 [N-[(4-carbamimidoylphenyl)methyl]-2,5-dimethyl-1-(2-pyridyl)pyrrole-3-carboxamide]
Ki [3]: 35 nM

Cc1cc(C(=O)NCc2ccc(C(=N)N)cc2)c(C)n1-c1cccnc1 [N-[(4-carbamimidoylphenyl)methyl]-2,5-dimethyl-1-(3-pyridyl)pyrrole-3-carboxamide]
Ki [3]: 46 nM

Cc1cc(C(=O)NCc2ccc(C(=N)N)cc2)c(C)n1-c1nccs1 [N-[(4-carbamimidoylphenyl)methyl]-2,5-dimethyl-1-thiazol-2-yl-pyrrole-3-carboxamide]
Ki [3]: 68 nM

Cl.NCC1CCC(C(=O)N[C@@H](Cc2ccccc2)C(=O)Nc2ccc(CC(=O)O)cc2)CC1 (stereo partly drawn) [PKSI-527]
effect on joint swelling (arthritis): reduce joint swelling

NC(N)=NCCC[C@@H](N)C(=O)N[C@@H](CCCN=C(N)N)C(=O)N1CCC[C@H]1C(=O)N1C[C@H](O)C[C@H]1C(=O)NCC(=O)N[C@@H](Cc1cccs1)C(=O)N[C@@H](CO)C(=O)N1Cc2ccccc2C[C@@H]1C(=O)N1[C@H](C(=O)N[C@@H](CCCN=C(N)N)C(=O)O)C[C@@H]2CCCC[C@@H]21 [icatibant]
effect on edema / hereditary angioedema (hereditary angioedema): effective in treating hereditary angioedema

H-[dP]-Phe-Arg-CH2Cl [reference compound]
effect on vascular permeability and lesions (sepsis [4]): reduce vascular permeability in multiple organs and reduce lesions

Hoe-140
effect on retinal vascular permeability [1]: reduce retinal vascular permeability

B1: C1-INH: the major endogenous inhibitor of PK (protein, UniProt P05155 23-500, looked up)
Plasma protease C1 inhibitor: NPNATSSSSQDPESLQDRGEGKVATTVISKMLFVEPILEVSSLPTTNSTTNSATKITANTTDEPTTQPTTEPTTQPTIQPTQPTTQLPTDSPTQPTTGSFCPGPVTLCSDLESHSTEAVLGDALVDFSLKLYHAFSAMKKVETNMAFSPFSIASLLTQVLLGAGENTKTNLESILSYPKDFTCVHQALKGFTTKGVTSVSQIFHSPDLAIRDTFVNASRTLYSSSPRVLSNNSDANLELINTWVAKNTNNKISRLLDSLPSDTRLVLLNAIYLSAKWKTTFDPKKTRMEPFHFKNSVIKVPMMNSKKYPVAHFIDQTLKAKVGQLQLSHNLSLVILVPQNLKHRLEDMEQALSPSVFKAIMEKLEMSKFQPTLLTLPRIKVTTSQDMLSIMEKLEFFDFSYDLNLCGLTEDPDLQVSAMQHQTVLELTETGVEAAAASAISVARTLLVFEVQQPFLFVLWDQQHKFPVFMGRVYDPRA
effect on infarct size [5]: reduced infarct size | effect on vascular permeability and lesions (sepsis [4]): reduce vascular permeability in multiple organs and reduce lesions | clinical outcome (sepsis [6]): Clinical improvement
